From patent publication US20050043341A1, “3-'Hydroxy-(-4-trifluoromethylphenyl)-methyl-7-spirocyclobutyl-5,6,7 8-tetrahydroquinolin-5-ol derivatives and the use of the same as cholesterol ester transfer protein (cetp) inhibitors” (priority 2001, published 2005) come the findings set out here.

One test concerns transgenic hCETP mice. In words: In vivo activity in transgenic hCETP mice (HDL). To be noted: stomach tube. On the procedure:
In experiments for the determination of the oral action on lipoproteins and triglycerides, test substance is administered to transgenic mice using a stomach tube (Dinchuck, Hart, Gonzalez, Karmann, Schmidt, Wirak; BBA (1995), 1295, 301). Before the start of the experiment, blood is taken from the mice retroorbitally in order to determine cholesterol and triglycerides in the serum. The serum is obtained as described above for hamsters by incubation at 4° C. overnight and subsequent centrifugation at 6000×g. […] The change in the parameters measured is expressed as the percentage change compared with the starting value.

The test system of a further test is Syrian golden hamsters. In words: In vivo activity in Syrian golden hamsters (HDL cholesterol). To be noted: perorally. On the procedure:
In experiments for the determination of the oral action on lipoproteins and triglycerides, test substance dissolved in DMSO and 0.5% suspended in Tylose are administered perorally by means of a stomach tube to Syrian golden hamsters bred in-house. For the determination of the CETP activity, before the start of the experiment blood is taken by retro-orbital puncture (about 250 μl). The test substances are then administered perorally by means of a stomach tube. The control animals receive identical volumes of solvent without test substance. The feed is then withdrawn from the animals and blood is taken at various times—up to 24 hours after substance administration—by puncture of the retroorbital venous plexus.
Clotting is terminated by incubation at 4° C. overnight, then centrifugation is carried out for 10 minutes at 6000×g. The content of cholesterol and triglycerides in the serum thus obtained is determined with the aid of modified commercially obtainable enzymatic tests (Ecoline 25 Cholesterol 1.14830.0001 Merck Diagnostica, Ecoline 25 Triglycerides 1.14856.0001 Merck Diagnostica). Serum is suitably diluted using physiological saline solution.
10 μl of serum dilution are treated with 200 μl of Ecoline 25 reagent in 96-hole plates and incubated for 10 minutes at room temperature. The optical density is then determined at a wavelength of 490 nm using an automatic plate reader. The triglyceride or cholesterol concentration contained in the samples is determined with the aid of a standard curve measured in parallel.
The determination of the content of HDL cholesterol is carried out after precipitation of the ApoB-containing lipoproteins (Sigma 352-4 HDL cholesterol reagent) according to the manufacturer's instructions.

The target in test [1] is T1, CETP activity in the serum (Homo sapiens, UniProt P11597).
T1 construct: determination of its basal CETP activity in the serum; from tissue; host or cells: serum of transgenic hCETP mice
T1 sequence (P11597 18-493): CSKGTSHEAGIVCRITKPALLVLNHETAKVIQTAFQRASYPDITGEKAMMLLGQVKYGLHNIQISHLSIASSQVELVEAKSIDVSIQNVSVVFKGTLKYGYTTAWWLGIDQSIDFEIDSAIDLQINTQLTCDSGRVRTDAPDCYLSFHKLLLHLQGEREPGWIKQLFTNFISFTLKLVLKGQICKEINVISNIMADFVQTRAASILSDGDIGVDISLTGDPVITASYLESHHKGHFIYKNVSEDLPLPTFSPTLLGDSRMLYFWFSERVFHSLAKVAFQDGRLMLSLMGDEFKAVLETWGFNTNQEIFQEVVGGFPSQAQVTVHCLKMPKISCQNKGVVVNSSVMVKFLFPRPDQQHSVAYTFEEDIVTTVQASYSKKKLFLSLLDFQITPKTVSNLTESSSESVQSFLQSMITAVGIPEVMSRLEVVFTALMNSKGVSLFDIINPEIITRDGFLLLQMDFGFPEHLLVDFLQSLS
Briefly: Ex vivo activities on transgenic hCETP mice (serum CETP activity after oral administration). To be noted: mouse, cholesteryl ester transport in serum. The method, then:
To test for CETP-inhibitory activity, the substances are administered orally using a stomach tube to transgenic hCETP mice of our own breeding (Dinchuk et al. BBA (1995) 1295-301). To this end, male mice are randomly assigned to groups having an equal number of animals, as a rule n=3, one day before the start of the experiment. Before administration of the substance, blood is taken from each mouse by puncture of the retroorbital venous plexus for the determination of its basal CETP activity in the serum (T1). The test substance is then administered to the animals using the stomach tube. At specific times after administration of the test substance, blood is taken from the animals by puncture a second time (T2), as a rule 1, or 3 and 6 h after substance administration, but if appropriate this can also be carried out at another time.
In order to be able to assess the inhibitory activity of a substance, for each time, i.e. 1 or 3 or 6 h, a corresponding control group is employed whose animals only receive the formulating agent without substance. In the control animals, the second blood sampling per animal is carried out as in the substance-treated animals in order to be able to determine the change in the CETP activity without inhibitor over the corresponding experimental time interval (1, 3 or 6 h).
After termination of the clotting, the blood samples are centrifuged and the serum is removed by pipette.
For the determination of the CETP activity, the cholesteryl ester transport over 4 h is determined. To this end, as a rule 2 μl of serum are employed in the test batch and the test is carried out as described under “CETP fluorescence test”.
The differences in the cholesteryl ester transport (pM CE*/h (T2)−pM CE*/h (T1)) are calculated for each animal and averaged in the groups. A substance which at one of the times reduces the cholesteryl ester transport by >30% is regarded as active.

[2] abbreviates: 1 h after administration, read-out: % inhibition at 30 mg/kg, 1 h.
Where [3] appears, read: 3 h after administration, read-out: % inhibition at 30 mg/kg, 3 h.
The mark [4] stands for this setting: 6 h after administration, read-out: % inhibition at 30 mg/kg, 6 h.

Where two headings read alike, the source gives them in different places.

Turning to `CC(C)c1nc2c(c(-c3ccc(F)cc3)c1[C@@H](O)c1ccc(C(F)(F)F)cc1)[C@@H](O)CC1(CCC1)C2` [Example 51, (5S)-2-Isopropyl-4-(4-fluorophenyl)-3-[(S)-hydroxy-(4-trifluoromethylphenyl)-methyl]-7-spirocyclobutyl-5,6,7,8-tetrahydroquinolin-5-ol], in the test on transgenic hCETP mice, the “% HDL increase after 4 d (Dose: 4 × 10 mg/kg)” value was 57%. Also, in the test with Syrian golden hamsters, the “% HDL increase after 24 h (Dose: 2 × 10 mg/kg)” value is recorded as 17%. The inhibition at 30 mg/kg in test [1] (setting [2]) was found to be 72%; in test [1] (setting [3]) it was 64%; in test [1] (setting [4]), 60%.
In the case of `CC(C)c1nc2c(c(-c3ccccc3)c1[C@@H](O)c1ccc(C(F)(F)F)cc1)[C@@H](O)CC1(CCC1)C2` [Example 53, (5S)-2-Isopropyl-4-phenyl-3-[(S)-hydroxy-(4-trifluoromethylphenyl)-methyl]-7-spirocyclobutyl-5,6,7,8-tetrahydroquinolin-5-ol], the “% HDL increase after 24 h (Dose: 2 × 10 mg/kg)” value with Syrian golden hamsters is 19%. Also, the inhibition at 30 mg/kg in test [1] (setting [2]) was found to be 69%; in test [1] (setting [3]), 51%; in test [1] (setting [4]), 44%.
`CC(C)c1nc2c(c(-c3cccs3)c1[C@@H](O)c1ccc(C(F)(F)F)cc1)[C@@H](O)CC1(CCC1)C2` [Example 61, (5S)-2-Isopropyl-4-(2-thienyl)-3-[(S)-hydroxy-(4-trifluoromethylphenyl)-methyl]-7-spirocyclobutyl-5,6,7,8-tetrahydroquinolin-5-ol]: the inhibition at 30 mg/kg in test [1] (setting [2]) came out at 71%; in test [1] (setting [3]), 49%; in test [1] (setting [4]) it was 35%.
